Measured values taken from US20230295118A1 (EnhancedBio Inc., priority 2022, published 2023).
pIC50: −log10 of the molar value.

Assays:
Type in all cases: cell-based
[1] = tested on: mantle cell lymphoma cell (Mino or JeKo-1); experiment: Antiproliferative effect, MTS cell viability assay; settings: 72 h, mantle cell lymphoma cell (Mino or JeKo-1), MTS assay, read-out: IC50 (anti-proliferation)
Outline: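 Mino cells treated with compounds at 0, 0.0001, 0.001, 0.01, 0.1, 1 μM for 72 h; palbociclib and abemaciclib as positive controls. Viability by MTS, formazan absorbance read at 490 nm.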

[2] = molecular target: T1, CDK4 (Homo sapiens, UniProt P11802); experiment: CDK4 degradation (DC50, Dmax)
T1 construct: endogenous in cells
T1 sequence (P11802 whole entry): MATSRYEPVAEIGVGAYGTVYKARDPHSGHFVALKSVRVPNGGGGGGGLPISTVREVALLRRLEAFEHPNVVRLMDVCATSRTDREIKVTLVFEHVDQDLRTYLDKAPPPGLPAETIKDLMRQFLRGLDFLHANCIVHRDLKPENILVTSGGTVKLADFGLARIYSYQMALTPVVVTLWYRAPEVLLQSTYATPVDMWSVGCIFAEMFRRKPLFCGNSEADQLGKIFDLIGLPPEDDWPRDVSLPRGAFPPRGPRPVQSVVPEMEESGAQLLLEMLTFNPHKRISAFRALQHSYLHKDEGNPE

[3] = molecular target: T2, CDK6 (Homo sapiens, UniProt Q00534); experiment: CDK6 degradation (DC50, Dmax)
T2 construct: endogenous in cells
T2 sequence (Q00534 whole entry): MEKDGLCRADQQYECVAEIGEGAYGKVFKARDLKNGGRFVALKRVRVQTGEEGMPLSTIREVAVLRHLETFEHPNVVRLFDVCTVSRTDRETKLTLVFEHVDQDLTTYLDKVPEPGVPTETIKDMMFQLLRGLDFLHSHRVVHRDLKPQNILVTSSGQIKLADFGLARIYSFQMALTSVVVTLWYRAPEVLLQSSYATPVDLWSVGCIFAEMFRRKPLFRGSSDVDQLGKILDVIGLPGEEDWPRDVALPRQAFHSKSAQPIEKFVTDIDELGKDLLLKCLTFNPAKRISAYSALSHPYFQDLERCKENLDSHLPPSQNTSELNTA

pIC50 [1]	DC50 [2] [nM]	Dmax [2] [%]	DC50 [3] [nM]	Dmax [3] [%]	SMILES
> 7.30	< 50	> 80	< 50	> 80	Cc1nc2c(F)cc(-c3nc(Nc4ccc(CN5CCN(CC6CCCN(c7ccc(N8CCC(=O)NC8=O)cc7)C6)CC5)cn4)ncc3F)cc2n1C(C)C (stereo not shown) [Compound 110, 1-(4-(3-((4-((6-((5-fluoro-4-(4-fluoro-1-isopropyl-2-methyl-1H-benzo[d]imidazol-6-yl)pyrimidin-2-yl)amino)pyridin-3-yl)methyl)piperazin-1-yl)methyl)piperidin-1-yl)phenyl) dihydropyrimidine-2,4(1H,3H)-dione]
> 7.30	< 50	> 80	< 50	> 80	CC(=O)c1c(C)c2cnc(Nc3ccc(N4CCN(CC5CN(c6ccc(N7CCC(=O)NC7=O)cc6)C5)CC4)cn3)nc2n(C2CCCC2)c1=O [Compound 111, 1-(4-(3-((4-(6-((6-acetyl-8-cyclopentyl-5-methyl-7-oxo-7,8-dihydropyrido[2,3-d]pyrimidin-2-yl)amino)pyridin-3-yl)piperazin-1-yl)methyl)azetidin-1-yl)phenyl) dihydropyrimidine-2,4(1H,3H)-dione]
> 7.30	50 to 200	> 80	< 50	> 80	CC(=O)c1c(C)c2cnc(Nc3ccc(N4CCN(C5CCN(c6ccc(N7CCC(=O)NC7=O)cc6)CC5)CC4)cn3)nc2n(C2CCCC2)c1=O [Compound 113, 1-(4-(4-(4-(6-((6-acetyl-8-cyclopentyl-5-methyl-7-oxo-7,8-dibydropyrido[2,3-d]pyrimidin-2-yl)amino)pyridin-3-yl)piperazin-1-yl)piperidin-1-yi)phenyl) dihydropyrimidine-2,4(1H,3H)-dione]
> 7.30	50 to 200	> 80	50 to 200	> 80	CC(=O)c1c(C)c2cnc(Nc3ccc(N4CCN(C(=O)C5CCN(c6ccc7c(c6)C(=O)N(C6CCC(=O)NC6=O)C7=O)CC5)CC4)cn3)nc2n(C2CCCC2)c1=O (stereo not shown) [Compound 114, 5-(4-(4-(6-((6-acetyl-8-cyclopentyl-5-methyl-7-oxo-7,8-dihydropyrido[2,3-d]pyrimidin-2-yl)amino)pyridin-3-yl)piperazine-1-carbonyl)piperidin-1-yl)-2-(2,6-dioxopiperidin-3-yl) isoindoline-1,3-dione]
> 7.30	50 to 200	> 60	50 to 200	> 60	CC(=O)c1c(C)c2cnc(Nc3ccc(N4CCN(C(=O)C5CCN(c6ccc7c(c6)CN(C6CCC(=O)NC6=O)C7=O)CC5)CC4)cn3)nc2n(C2CCCC2)c1=O (stereo not shown) [Compound 115, 3-(5-(4-(4-(6-((6-acetyl-8-cyclopentyl-5-methyl-7-oxo-7,8-dihydropyrido[2,3-d]pyrimidin-2-yl)amino)pyridin-3-yl)piperazine-1-carbonyl)piperidin-1-yl)-1-oxoisoindolin-2-yl)piperidine-2,6-dione]
> 7.30	< 50	> 80	< 50	> 80	CC(=O)c1c(C)c2cnc(Nc3ccc(N4CCN(C(=O)C5CN(c6ccc7c(c6)CN(C6CCC(=O)NC6=O)C7=O)C5)CC4)cn3)nc2n(C2CCCC2)c1=O (stereo not shown) [Compound 122, 3-(5-(3-(4-(6-((6-acetyl-8-cyclopentyl-5-methyl-7-oxo-7,8-dihydropyrido[2,3-d]pyrimidin-2-yl)amino)pyridin-3-yl)piperazine-1-carbonyl)azetidin-1-yl)-1-oxoisoindolin-2-yl) piperidine-2,6-dione]
> 7.30	< 50	> 80	< 50	> 80	CC(=O)c1c(C)c2cnc(Nc3ccc(C4CCN(CC5CN(c6ccc7c(c6)C(=O)N(C6CCC(=O)NC6=O)C7=O)C5)CC4)cn3)nc2n(C2CCCC2)c1=O (stereo not shown) [Compound 125, 5-(3-((4-(6-((6-acetyl-8-cyclopentyl-5-methyl-7-oxo-7,8-dihydropyrido[2,3-d]pyrimidin-2-yl)amino)pyridin-3-yl)piperidin-1-yl)methyl)azetidin-1-yl)-2-(2,6-dioxopiperidin-3-yl)isoindoline-1,3-dione]

The next lines start with the compound.

SMILES	pIC50 [1]	DC50 [2] [nM]	Dmax [2] [%]	DC50 [3] [nM]	Dmax [3] [%]
CC(=O)c1c(C)c2cnc(Nc3ccc(N4CCN(CC5CCN(c6ccc(N7CCC(=O)NC7=O)cc6)CC5)CC4)cn3)nc2n(C2CCCC2)c1=O [Compound 112, 1-(4-(4-((4-(6-((6-acetyl-8-cyclopentyl-5-methyl-7-oxo-7,8-dihydropyrido[2,3-d]pyrimidin-2-yl)amino)pyridin-3-yl)piperazin-1-yl)methyl)piperidin-1-yl)phenyl) dihydropyrimidine-2,4(1H,3H)-dione]	> 7.30	< 50	> 80	50 to 200	> 80
CC(=O)c1c(C)c2cnc(Nc3ccc(N4CCN(C(=O)C5CCN(c6ccc(C(=O)NC7CCC(=O)NC7=O)cc6)CC5)CC4)cn3)nc2n(C2CCCC2)c1=O (stereo not shown) [Compound 116, 4-(4-(4-(6-((6-acetyl-8-cyclopentyl-5-methyl-7-oxo-7,8-dihydropyrido[2,3-d]pyrimidin-2-yl)amino)pyridin-3-yl)piperazine-1-carbonyl)piperidin-1-yl)-N-(2,6-dioxopiperidin-3-yl)benzamide]	6.70 to 7.30	50 to 200	> 80	50 to 200	> 80
CC(=O)c1c(C)c2cnc(Nc3ccc(N4CCN(C(=O)C5CCN(c6ccc(NC7CCC(=O)NC7=O)cc6)CC5)CC4)cn3)nc2n(C2CCCC2)c1=O (stereo not shown) [Compound 117, 3-((4-(4-(4-(6-((6-acetyl-8-cyclopentyl-5-methyl-7-oxo-7,8-dihydropyrido[2,3-d]pyrimidin-2-yl)amino)pyridin-3-yl)piperazine-1-carbonyl)piperidin-1-yl)phenyl)amino) piperidine-2,6-dione]	> 7.30	< 50	> 80	50 to 200	> 60
CC(=O)c1c(C)c2cnc(Nc3ccc(N4CCN(CC5CN(c6ccc7c(c6)CN(C6CCC(=O)NC6=O)C7=O)C5)CC4)cn3)nc2n(C2CCCC2)c1=O (stereo not shown) [Compound 118, 3-(5-(3-((4-(6-((6-acetyl-8-cyclopentyl-5-methyl-7-oxo-7,8-dihydropyrido[2,3-d]pyrimidin-2-yl)amino)pyridin-3-yl)piperazin-1-yl)methyl)azetidio-1-yl)-1-oxoisoindolin-2-yl)piperidine-2,6-dione]	> 7.30	< 50	> 80	< 50	> 80
CC(=O)c1c(C)c2cnc(Nc3ccc(N4CCN(CC5CN(c6ccc(C(=O)NC7CCC(=O)NC7=O)cc6)C5)CC4)cn3)nc2n(C2CCCC2)c1=O (stereo not shown) [Compound 119, 4-(3-((4-(6-((6-acetyl-8-cyclopentyl-5-methyl-7-oxo-7,8-dihydropyrido[2,3-d]pyrimidin-2-yl)amino)pyridin-3-yl)piperazin-1-yl)methyl)azetidin-1-yl)-N-(2,6-dioxopiperidin-3-yl)benzamide]	> 7.30	50 to 200	> 80	50 to 200	> 80
CC(=O)c1c(C)c2cnc(Nc3ccc(N4CCN(CC5CN(c6ccc(NC7CCC(=O)NC7=O)cc6)C5)CC4)cn3)nc2n(C2CCCC2)c1=O (stereo not shown) [Compound 120, 3-((4-(3-((4-(6-((6-acetyl-8-cyclopentyl-5-methyl-7-oxo-7,8-dihydropyrido[2,3-d]pyrimidin-2-yl)amino)pyridin-3-yl)piperazin-1-yl)methyl)azetidin-1-yl)phenyl)amino) piperidine-2,6-dione]	> 7.30	< 50	> 80	50 to 200	> 80
CC(=O)c1c(C)c2cnc(Nc3ccc(N4CCN(C(=O)C5CN(c6ccc7c(c6)C(=O)N(C6CCC(=O)NC6=O)C7=O)C5)CC4)cn3)nc2n(C2CCCC2)c1=O (stereo not shown) [Compound 121, 5-(3-(4-(6-((6-acetyl-8-cyclopentyl-5-methyl-7-oxo-7,8-dihydropyrido[2,3-d]pyrimidin-2-yl)amino)pyridin-3-yl)piperazine-1-carbonyl)azetidin-1-yl)-2-(2,6-dioxopiperidin-3-yl)isoindoline-1,3-dione]	> 7.30	< 50	> 80	< 50	> 80
CC(=O)c1c(C)c2cnc(Nc3ccc(N4CCN(C(=O)C5CN(c6ccc(C(=O)NC7CCC(=O)NC7=O)cc6)C5)CC4)cn3)nc2n(C2CCCC2)c1=O (stereo not shown) [Compound 123, 4-(3-(4-(6-((6-acetyl-8-cyclopentyl-5-methyl-7-oxo-7,8-dihydropyrido[2,3-d]pyrimidin-2-yl)amino)pyridin-3-yl)piperazine-1-carbonyl)azetidin-1-yl)-N-(2,6-dioxopiperidin-3-yl)benzamide]	> 7.30	< 50	> 60	< 50	> 60
CC(=O)c1c(C)c2cnc(Nc3ccc(N4CCN(C(=O)C5CN(c6ccc(NC7CCC(=O)NC7=O)cc6)C5)CC4)cn3)nc2n(C2CCCC2)c1=O (stereo not shown) [Compound 124, 3-((4-(3-(4-(6-((6-acetyl-8-cyclopentyl-5-methyl-7-oxo-7,8-dihydropyrido[2,3-d]pyrimidin-2-yl)amino)pyridin-3-yl)piperazine-1-carbonyl)azetidin-1-yl)phenyl)amino) piperidine-2,6-dione]	> 7.30	50 to 200	> 80	50 to 200	> 60
CC(=O)c1c(C)c2cnc(Nc3ccc(C4CCN(CC5CN(c6ccc7c(c6)CN(C6CCC(=O)NC6=O)C7=O)C5)CC4)cn3)nc2n(C2CCCC2)c1=O (stereo not shown) [Compound 126, 3-(5-(3-((4-(6-((6-acetyl-8-cyclopentyl-5-methyl-7-oxo-7,8-dihydropyrido[2,3-d]pyrimidin-2-yl)amino)pyridin-3-yl)piperidin-1-yl)methyl)azetidin-1-yl)-1-oxoisoindolin-2-yl) piperidine-2,6-dione]	> 7.30	< 50	> 80	< 50	> 80
